Source: PubChem BioAssay (NCI)
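Assay format: 96-well plates, 48-hour exposure. Here, GI50 denotes the concentration required for 50% inhibition of growth. TGI marks complete inhibition of growth.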

Assays:
Assay in all cases: NCI-60 cell line screen, 48 h
EKVX NSCLC = tested on: EKVX NSCLC
MALME-3M melanoma = tested on: MALME-3M melanoma
OVCAR-8 ovarian = tested on: OVCAR-8 ovarian
PC-3 prostate = tested on: PC-3 prostate
RXF 393 renal = tested on: RXF 393 renal
SF-268 CNS = tested on: SF-268 CNS
SK-MEL-28 melanoma = tested on: SK-MEL-28 melanoma
SNB-19 CNS = tested on: SNB-19 CNS
HT29 colon = tested on: HT29 colon
OVCAR-4 ovarian = tested on: OVCAR-4 ovarian

Row | SMILES | TGI (EKVX NSCLC) | TGI (MALME-3M melanoma) | TGI (OVCAR-8 ovarian) | TGI (PC-3 prostate) | TGI (RXF 393 renal) | TGI (SF-268 CNS) | TGI (SK-MEL-28 melanoma) | TGI (SNB-19 CNS) | TGI (HT29 colon) | TGI (OVCAR-4 ovarian) | GI50 (EKVX NSCLC) | GI50 (HT29 colon) | GI50 (MALME-3M melanoma) | GI50 (OVCAR-4 ovarian) | GI50 (OVCAR-8 ovarian) | GI50 (RXF 393 renal) | GI50 (SF-268 CNS) | GI50 (SK-MEL-28 melanoma) | GI50 (SNB-19 CNS) | GI50 (PC-3 prostate)
1 | O=C1c2ccccc2-n2c1nc1ccc([N+](=O)[O-])cc1c2=O | > 100 µM | > 100 µM | 46.6 µM | > 100 µM | > 100 µM | > 100 µM | > 100 µM | > 100 µM | – | – | – | – | – | – | – | – | – | – | – | –
2 | Cc1ncc2c(n1)CCC1=C2OS(=O)(=O)CC1N(C)C (stereo unspecified) | > 100 µM | – | > 100 µM | > 100 µM | – | > 100 µM | > 100 µM | > 100 µM | > 100 µM | > 100 µM | – | – | – | – | – | – | – | – | – | –
3 | CCCOC(=O)C1C(c2ccc(OC)cc2)NC(c2ccc(OC)cc2)C(C(=O)OCCC)S1(=O)=O (stereo unspecified) | > 100 µM | > 100 µM | > 100 µM | – | > 100 µM | > 100 µM | > 100 µM | > 100 µM | > 100 µM | > 100 µM | > 100 µM | > 100 µM | > 100 µM | > 100 µM | > 100 µM | > 100 µM | > 100 µM | > 100 µM | > 100 µM | –
4 | O=C(O)CC(CC(=O)O)n1cccc1 | > 100 µM | – | > 100 µM | > 100 µM | > 100 µM | – | > 100 µM | > 100 µM | > 100 µM | > 100 µM | – | – | – | – | – | – | – | – | – | –
5 | Cc1nc2sc(C(=O)Nc3cccc4c3OCCO4)c(N)c2cc1C(C)O (stereo unspecified) | > 100 µM | – | > 100 µM | > 100 µM | > 100 µM | > 100 µM | > 100 µM | > 100 µM | > 100 µM | > 100 µM | > 100 µM | 2.62 µM | – | > 100 µM | 6.48 µM | 2.92 µM | > 100 µM | > 100 µM | 6.8 µM | 5 µM
6 | COc1ccc(C)cc1-c1ccc(-c2cc(C)ccc2OC)o1 | > 100 µM | > 100 µM | > 100 µM | – | – | > 100 µM | > 100 µM | > 100 µM | > 100 µM | > 100 µM | – | – | – | – | – | – | – | – | – | –
7 | N/N=C1\C(=O)N(c2ccc(Cl)c(Cl)c2)C(=O)C1C(=O)Nc1ccc(Cl)c(Cl)c1 (stereo unspecified) | > 100 µM | > 100 µM | > 100 µM | – | > 100 µM | > 100 µM | > 100 µM | > 100 µM | > 100 µM | > 100 µM | – | – | – | – | – | – | – | – | – | –
8 | CC1(C)CCOC(Sc2ccccc2)C1 (stereo unspecified) | > 100 µM | – | > 100 µM | – | > 100 µM | > 100 µM | > 100 µM | > 100 µM | – | > 100 µM | – | – | – | – | – | – | – | – | – | –
9 | COc1ccc(C2=NC(CO)[C@H](c3ccccc3)O2)cc1OC (stereo partly specified) | – | > 100 µM | > 100 µM | – | – | > 100 µM | – | > 100 µM | > 100 µM | > 100 µM | – | – | – | – | – | – | – | – | – | –
10 | COc1ccc(/C(=N/O)c2cc(F)c(F)c(OC)c2F)cc1O | > 100 µM | – | > 100 µM | > 100 µM | – | > 100 µM | > 100 µM | > 100 µM | 65.4 µM | > 100 µM | 0.714 µM | 3.6 µM | – | 9.1 µM | 3.1 µM | – | 0.839 µM | 10.8 µM | 0.827 µM | 0.565 µM
11 | Oc1ccc(Br)cc1C=Nc1ccc(Oc2ccc(N=Cc3cc(Br)ccc3O)cc2)cc1 | > 19.6 µM | > 19.6 µM | > 19.6 µM | – | > 19.6 µM | > 19.6 µM | > 19.6 µM | > 19.6 µM | > 19.6 µM | > 19.6 µM | – | – | – | – | – | – | – | – | – | –
12 | CC[P+](C)(C)CC | > 100 µM | > 100 µM | > 100 µM | – | > 100 µM | > 100 µM | > 100 µM | > 100 µM | > 100 µM | > 100 µM | – | – | – | – | – | – | – | – | – | –
13 | Cc1c(C(=O)Nc2ccc(Oc3ccnc4cc(OCC(C)(C)O)ccc34)c(F)c2)c(=O)n(-c2ccccc2)n1C | – | – | – | – | > 100 µM | > 100 µM | – | > 100 µM | > 100 µM | – | – | 2.29 µM | – | – | – | 2.72 µM | 6.37 µM | – | 7.23 µM | –
14 | O=C(N/N=C/c1coc2ccc(Cl)cc2c1=O)c1cc(O)c(O)c(O)c1 | > 100 µM | – | > 100 µM | > 100 µM | > 100 µM | > 100 µM | > 100 µM | > 100 µM | > 100 µM | > 100 µM | 27.1 µM | 63.8 µM | – | 98.4 µM | 18.6 µM | 34.9 µM | > 100 µM | 65.7 µM | 72.8 µM | 33.2 µM
15 | CC1Nc2ccccc2NC1C=C(C#N)C#N (stereo unspecified) | 37.1 µM | 32.3 µM | 23.1 µM | – | 31.3 µM | 29.9 µM | 31 µM | 36.3 µM | 36.9 µM | 31.6 µM | – | – | – | – | – | – | – | – | – | –
16 | O=C1CC[C@@H]2[C@H]3CCC(=O)c4c3c(c3cccc(O)c3c4O)O[C@@]23C(=O)c2cccc(O)c2C(O)=C13 | > 100 µM | – | > 100 µM | > 100 µM | > 100 µM | > 100 µM | > 100 µM | > 100 µM | > 100 µM | – | > 100 µM | > 100 µM | – | – | > 100 µM | > 100 µM | > 100 µM | > 100 µM | > 100 µM | > 100 µM
17 | Cc1ccccc1-c1cc(=O)c2cc(C)c(C)c(C(=O)O)c2o1 | > 100 µM | > 100 µM | > 100 µM | – | – | – | > 100 µM | > 100 µM | > 100 µM | > 100 µM | – | – | – | – | – | – | – | – | – | –
18 | Cc1nc2ccccc2c(/C=C/c2ccc(C(F)(F)F)cc2)c1C(=O)/C=C/c1ccccc1 | 2.99 µM | 3.02 µM | 4.91 µM | 3.17 µM | 2.81 µM | – | 3.22 µM | 3.01 µM | 6.05 µM | – | 1.61 µM | 1.04 µM | 1.6 µM | – | 1.64 µM | 1.46 µM | – | 1.77 µM | 1.64 µM | 1.34 µM
19 | NNC(=S)N/N=C(\c1nc2ccc(Cl)cc2[nH]c1=O)C(O)c1cccc([N+](=O)[O-])c1 (stereo unspecified) | > 100 µM | > 100 µM | > 100 µM | – | > 100 µM | > 79.5 µM | > 79.4 µM | > 100 µM | > 50.9 µM | > 100 µM | – | – | – | – | – | – | – | – | – | –
20 | O=C1CC2=CCCC2O1 (stereo unspecified) | > 100 µM | > 100 µM | > 100 µM | – | > 100 µM | > 100 µM | > 100 µM | > 100 µM | > 100 µM | > 100 µM | – | – | – | – | – | – | – | – | – | –
